Laboratory results published in ChEMBL document CHEMBL1144796, “Carbonic anhydrase inhibitors. Interaction of indapamide and related diuretics with 12 mammalian isozymes and X-ray crystallographic studies for the indapamide-isozyme II adduct” (Bioorg Med Chem Lett, 2008).
pKi: −log10 of the molar value.

Assays:
[1] = biological target: Carbonic anhydrase 2 (Homo sapiens) (UniProt P00918)
[2] = biological target: Carbonic anhydrase 3 (Homo sapiens) (UniProt P07451)
[3] = biological target: Carbonic anhydrase 13 (Mus musculus) (UniProt Q9D6N1); test: Inhibition of mouse full length carbonic anhydrase 13
[4] = biological target: Carbonic anhydrase 9 (Homo sapiens) (UniProt Q16790)
[5] = biological target: Carbonic anhydrase 6 (Homo sapiens) (UniProt P23280)
[6] = biological target: Carbonic anhydrase 7 (Homo sapiens) (UniProt P43166)
[7] = biological target: Carbonic anhydrase 4 (Homo sapiens) (UniProt P22748)
[8] = biological target: Carbonic anhydrase 5B, mitochondrial (Homo sapiens) (UniProt Q9Y2D0)
[9] = biological target: Carbonic anhydrase 5A, mitochondrial (Homo sapiens) (UniProt P35218)
[10] = biological target: Carbonic anhydrase 14 (Homo sapiens) (UniProt Q9ULX7)
[11] = biological target: Carbonic anhydrase 12 (Homo sapiens) (UniProt O43570)
Sequence of Carbonic anhydrase 12 (Homo sapiens) (O43570 whole entry): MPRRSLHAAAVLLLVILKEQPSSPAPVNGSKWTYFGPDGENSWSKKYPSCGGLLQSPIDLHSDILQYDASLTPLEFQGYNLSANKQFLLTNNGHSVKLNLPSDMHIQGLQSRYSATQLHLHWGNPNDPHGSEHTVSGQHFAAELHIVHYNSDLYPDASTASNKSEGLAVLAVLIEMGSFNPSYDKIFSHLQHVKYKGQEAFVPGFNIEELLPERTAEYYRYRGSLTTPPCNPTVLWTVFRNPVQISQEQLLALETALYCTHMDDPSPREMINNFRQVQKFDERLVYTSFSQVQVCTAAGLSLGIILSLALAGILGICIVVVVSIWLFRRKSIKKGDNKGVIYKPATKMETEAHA

Sequence of Carbonic anhydrase 7 (Homo sapiens) (P43166 whole entry): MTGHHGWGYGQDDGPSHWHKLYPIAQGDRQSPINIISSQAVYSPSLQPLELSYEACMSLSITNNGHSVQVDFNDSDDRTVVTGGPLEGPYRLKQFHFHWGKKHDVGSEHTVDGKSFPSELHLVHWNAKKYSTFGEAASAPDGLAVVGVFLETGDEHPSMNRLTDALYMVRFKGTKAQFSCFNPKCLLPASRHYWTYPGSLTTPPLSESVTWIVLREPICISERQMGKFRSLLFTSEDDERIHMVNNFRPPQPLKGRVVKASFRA
Sequence of Carbonic anhydrase 14 (Homo sapiens) (Q9ULX7 whole entry): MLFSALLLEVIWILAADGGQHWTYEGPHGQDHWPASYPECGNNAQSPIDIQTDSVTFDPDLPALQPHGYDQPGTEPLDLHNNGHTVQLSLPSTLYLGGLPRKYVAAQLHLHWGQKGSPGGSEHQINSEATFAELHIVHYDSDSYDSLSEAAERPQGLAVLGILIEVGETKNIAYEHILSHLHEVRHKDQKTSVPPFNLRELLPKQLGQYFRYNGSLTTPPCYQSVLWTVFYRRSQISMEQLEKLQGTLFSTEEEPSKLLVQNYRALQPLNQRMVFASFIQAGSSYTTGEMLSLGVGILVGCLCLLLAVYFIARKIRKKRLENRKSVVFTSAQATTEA
Sequence of Carbonic anhydrase 5B, mitochondrial (Homo sapiens) (Q9Y2D0 whole entry): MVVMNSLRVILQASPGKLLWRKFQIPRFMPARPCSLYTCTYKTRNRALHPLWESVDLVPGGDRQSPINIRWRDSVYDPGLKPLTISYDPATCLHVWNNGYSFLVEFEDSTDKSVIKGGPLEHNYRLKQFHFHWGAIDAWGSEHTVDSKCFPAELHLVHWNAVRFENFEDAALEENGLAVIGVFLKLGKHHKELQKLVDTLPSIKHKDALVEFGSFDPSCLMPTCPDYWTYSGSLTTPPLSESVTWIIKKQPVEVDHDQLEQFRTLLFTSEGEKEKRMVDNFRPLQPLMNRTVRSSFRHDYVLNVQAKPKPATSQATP
Sequence of Carbonic anhydrase 4 (Homo sapiens) (P22748 whole entry): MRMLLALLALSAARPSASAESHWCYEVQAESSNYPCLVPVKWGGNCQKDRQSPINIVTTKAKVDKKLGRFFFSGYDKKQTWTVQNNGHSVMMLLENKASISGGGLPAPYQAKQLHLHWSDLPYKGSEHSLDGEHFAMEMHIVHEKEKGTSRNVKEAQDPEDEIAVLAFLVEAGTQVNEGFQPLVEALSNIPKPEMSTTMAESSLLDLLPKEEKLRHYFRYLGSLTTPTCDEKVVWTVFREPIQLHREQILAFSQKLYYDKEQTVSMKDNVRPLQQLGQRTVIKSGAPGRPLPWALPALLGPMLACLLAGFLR
Sequence of Carbonic anhydrase 13 (Mus musculus) (Q9D6N1 whole entry, looked up): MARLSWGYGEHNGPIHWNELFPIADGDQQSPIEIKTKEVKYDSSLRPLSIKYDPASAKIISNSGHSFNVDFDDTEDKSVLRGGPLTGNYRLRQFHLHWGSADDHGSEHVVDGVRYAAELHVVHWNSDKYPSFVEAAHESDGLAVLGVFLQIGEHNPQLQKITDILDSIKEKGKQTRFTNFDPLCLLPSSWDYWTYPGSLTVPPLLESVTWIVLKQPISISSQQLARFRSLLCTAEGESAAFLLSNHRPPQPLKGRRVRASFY
Sequence of Carbonic anhydrase 5A, mitochondrial (Homo sapiens) (P35218 whole entry): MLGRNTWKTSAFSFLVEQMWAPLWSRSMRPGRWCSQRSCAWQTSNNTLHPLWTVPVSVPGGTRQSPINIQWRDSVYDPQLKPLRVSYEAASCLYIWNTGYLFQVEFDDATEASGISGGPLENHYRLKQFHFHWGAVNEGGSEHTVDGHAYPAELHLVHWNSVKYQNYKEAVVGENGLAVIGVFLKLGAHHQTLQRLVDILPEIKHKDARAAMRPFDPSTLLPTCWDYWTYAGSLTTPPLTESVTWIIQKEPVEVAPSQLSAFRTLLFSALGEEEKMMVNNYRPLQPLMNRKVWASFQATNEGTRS
Sequence of Carbonic anhydrase 3 (Homo sapiens) (P07451 whole entry): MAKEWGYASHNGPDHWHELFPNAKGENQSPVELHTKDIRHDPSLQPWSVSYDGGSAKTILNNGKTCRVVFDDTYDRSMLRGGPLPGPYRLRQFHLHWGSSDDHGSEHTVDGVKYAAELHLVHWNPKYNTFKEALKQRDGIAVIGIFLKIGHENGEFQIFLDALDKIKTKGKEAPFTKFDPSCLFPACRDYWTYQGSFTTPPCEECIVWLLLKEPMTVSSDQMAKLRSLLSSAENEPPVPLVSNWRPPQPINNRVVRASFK
Sequence of Carbonic anhydrase 6 (Homo sapiens) (P23280 whole entry): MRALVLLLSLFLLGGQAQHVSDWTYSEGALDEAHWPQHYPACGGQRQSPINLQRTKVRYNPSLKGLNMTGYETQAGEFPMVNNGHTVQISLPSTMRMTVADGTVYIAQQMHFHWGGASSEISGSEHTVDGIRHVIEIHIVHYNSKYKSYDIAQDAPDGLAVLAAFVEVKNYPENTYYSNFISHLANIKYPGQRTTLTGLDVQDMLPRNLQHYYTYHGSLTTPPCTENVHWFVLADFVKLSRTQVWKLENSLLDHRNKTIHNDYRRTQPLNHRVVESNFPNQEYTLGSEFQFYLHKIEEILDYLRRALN

| pKi [1] | Ki [2] | pKi [3] | pKi [4] | pKi [5] | pKi [6] | pKi [7] | pKi [8] | pKi [9] | pKi [10] | pKi [11] | Structure (SMILES) |
| --- | --- | --- | --- | --- | --- | --- | --- | --- | --- | --- | --- |
| 5.90 | – | – | – | – | – | – | – | – | – | – | CCC1NC(=O)c2cc(S(N)(=O)=O)c(Cl)cc2N1 (stereo not drawn) |
| – | > 2 10^5nM | – | – | – | – | – | – | – | – | – | CC(=O)/N=c1/sc(S(N)(=O)=O)nn1C |
| 6.36 | > 2 10^5nM | 4.81 | 6.39 | 5.08 | 6.36 | 5.32 | 6.37 | 4.99 | 6.44 | 6.52 | CC1Nc2cc(C(F)(F)F)c(S(N)(=O)=O)cc2S(=O)(=O)N1C (stereo not drawn) |
| – | > 2 10^5nM | 5.41 | 6.44 | 5.44 | – | 6.37 | 6.22 | 5.37 | 5.39 | 6.45 | CC1Nc2cc(Cl)c(S(N)(=O)=O)cc2S(=O)(=O)N1C (stereo not drawn) |
| 5.70 | > 2 10^5nM | 7.82 | 6.49 | 5.77 | – | 6.67 | 6.51 | 6.12 | 5.27 | 8.27 | Cc1ccccc1N1C(=O)c2cc(S(N)(=O)=O)c(Cl)cc2NC1C (stereo not drawn) |
| – | > 2 10^5nM | – | – | – | – | – | – | – | – | – | NS(=O)(=O)c1cc(C(=O)O)c(NCc2ccco2)cc1Cl |
| 5.16 | > 2 10^5nM | 5.59 | 7.59 | 5.41 | 7.21 | 6.52 | 6.80 | 6.15 | 6.60 | 7.68 | CCCCNc1cc(C(=O)O)cc(S(N)(=O)=O)c1Oc1ccccc1 |

| Structure (SMILES) | pKi [1] | Ki [2] | pKi [3] | pKi [4] | pKi [5] | pKi [6] | pKi [7] | pKi [8] | pKi [9] | pKi [10] | pKi [11] |
| --- | --- | --- | --- | --- | --- | --- | --- | --- | --- | --- | --- |
| NS(=O)(=O)c1cc(C2(O)NC(=O)c3ccccc32)ccc1Cl (stereo not drawn) | 6.86 | – | 7.82 | 7.64 | 5.87 | 8.55 | 6.71 | 8.05 | 6.04 | 5.38 | – |
